Experimental data taken from the supplement of paper PMC10307832.

Columns and labels:
Assay in all cases: relative viability (nuclei count vs DMSO), 5 days (fraction); higher = more cells survive
[1] = compound: COC1=C(C=C(C=C1)C2=CC3=NC=CN3C(=N2)NC4=C(C=CC=N4)C(=O)N)OC [BAY61-3606] + N=C(N)NC(=N)NCCc1ccccc1 [Phenformin] (partner 250 µM)
Method in brief: (§1)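 Nuclei were stained with Hoechst during a one-step fixation (final 0.05% Triton X-100, 1% formaldehyde, 1 ug/ml Hoechst) carried out 5 days after dosing, then counted on 4× images. The cells, lung cancer lines in 1536-well plates, had been dosed by pin tool the day after seeding with one drug alone or a fixed anchor-drug dose plus five library-drug doses (not always all listed) in √10 steps. Relative viability is the nuclei count in treated wells divided by that in vehicle wells, and each value is the median of duplicate plates.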

[2] = compound: COc1cccc2c1C(=O)c1c(O)c3c(c(O)c1C2=O)C[C@@](O)(C(=O)CO)C[C@@H]3O[C@H]1C[C@H](N)[C@H](O)[C@H](C)O1 [Doxorubicin] + CC(=O)Nc1cccc(-n2c(=O)n(C3CC3)c(=O)c3c(Nc4ccc(I)cc4F)n(C)c(=O)c(C)c32)c1 [Trametinib] (partner 0.02 µM)
Method in brief: as §1

[3] = compound: COc1cccc2c1C(=O)c1c(O)c3c(c(O)c1C2=O)C[C@@](O)(C(=O)CO)C[C@@H]3O[C@H]1C[C@H](N)[C@H](O)[C@H](C)O1 [Doxorubicin] + CS(=O)(=O)N1CCN(Cc2cc3nc(-c4cccc5[nH]ncc45)nc(N4CCOCC4)c3s2)CC1 [Pictilisib] (partner 1 µM)
Method in brief: as §1

[4] = compound: COc1cccc2c1C(=O)c1c(O)c3c(c(O)c1C2=O)C[C@@](O)(C(=O)CO)C[C@@H]3O[C@H]1C[C@H](N)[C@H](O)[C@H](C)O1 [Doxorubicin] + O=C(CCCCCCC(=O)Nc1ccccc1)NO [Vorinostat] (partner 1 µM)
Method in brief: as §1

| Cell Line | relative viability ([1]; first compound 0.02 µM) | relative viability ([1]; first compound 0.06325 µM) | relative viability ([1]; first compound 0.2 µM) | relative viability ([1]; first compound 0.6325 µM) | relative viability ([1]; first compound 2 µM) | relative viability ([2]; first compound 0.001 µM) | relative viability ([2]; first compound 0.003162 µM) | relative viability ([2]; first compound 0.03162 µM) | relative viability ([2]; first compound 0.1 µM) | relative viability ([3]; first compound 0.001 µM) | relative viability ([3]; first compound 0.003162 µM) | relative viability ([3]; first compound 0.01 µM) | relative viability ([3]; first compound 0.03162 µM) | relative viability ([3]; first compound 0.1 µM) | relative viability ([4]; first compound 0.001 µM) | relative viability ([4]; first compound 0.003162 µM) | relative viability ([4]; first compound 0.03162 µM) | relative viability ([4]; first compound 0.1 µM) | relative viability ([2]; first compound 0.01 µM) | relative viability ([4]; first compound 0.01 µM) |
| --- | --- | --- | --- | --- | --- | --- | --- | --- | --- | --- | --- | --- | --- | --- | --- | --- | --- | --- | --- | --- |
| NCI-H727 | 0.68 | 0.554 | 0.542 | 0.553 | 0.541 | 0.401 | 0.382 | 0.397 | 0.382 | 0.334 | 0.342 | 0.353 | 0.391 | 0.356 | 1.33 | 1.09 | 1.13 | 1.19 |  |  |
| A-427 | 0.417 | 0.235 | 0.287 | 0.315 | 0.257 | 0.782 | 0.708 | 0.534 | 0.418 | 0.664 | 0.818 | 0.723 | 0.636 | 0.791 | 0.913 | 0.884 | 0.647 | 0.351 | 0.743 | 0.847 |
| EMC-BAC-2 | 0.582 | 0.509 | 0.485 | 0.521 | 0.444 | 0.807 | 0.633 | 0.297 | 0.36 | 0.685 | 0.528 | 0.538 | 0.477 | 0.338 | 0.872 | 0.311 | 0.22 | 0.114 | 0.576 | 0.241 |
| NCI-H647 | 0.562 | 0.294 | 0.496 | 0.393 | 0.29 | 0.449 | 0.623 | 0.295 | 0.202 |  | 0.38 | 0.46 | 0.279 | 0.1 | 0.546 | 0.671 | 0.132 | 0.189 | 0.543 | 0.387 |
| LCLC-97TM1 | 0.419 | 0.441 | 0.455 | 0.415 | 0.451 | 0.193 | 0.219 | 0.199 | 0.209 | 0.145 | 0.24 | 0.225 | 0.158 | 0.187 | 0.785 | 0.909 | 0.707 | 0.703 | 0.15 | 0.73 |
| HOP-62 | 0.629 | 0.645 | 0.635 | 0.667 | 0.534 | 0.373 | 0.389 | 0.411 | 0.373 | 0.315 | 1.03 | 0.782 | 0.553 | 0.717 | 0.515 | 0.605 | 0.538 | 0.572 | 0.413 | 0.599 |
| NCI-H1437 | 0.345 | 0.312 | 0.304 | 0.283 | 0.284 | 0.564 | 0.609 | 0.363 | 0.26 | 0.541 | 0.443 | 0.363 | 0.122 | 0.143 | 0.784 | 0.891 | 0.627 | 0.585 | 0.46 | 0.812 |
| NCI-H1755 | 0.666 | 0.6 | 0.578 | 0.656 | 0.59 | 0.791 | 0.804 | 0.77 | 0.88 | 0.342 | 0.508 | 0.451 | 0.444 | 0.44 | 0.78 | 0.749 | 0.788 | 0.827 | 0.784 | 0.716 |
| HARA | 0.433 | 0.35 | 0.432 | 0.494 | 0.369 | 0.544 | 0.575 | 0.471 | 0.647 | 0.444 | 0.439 | 0.434 | 0.357 | 0.294 | 0.593 | 0.482 | 0.589 | 0.432 | 0.799 | 0.547 |
| HCC-15 | 0.474 | 0.457 | 0.458 | 0.474 | 0.454 | 0.381 | 0.395 | 0.379 | 0.407 | 0.663 | 0.759 | 0.614 | 0.467 | 0.478 | 0.888 | 0.847 | 0.736 | 0.747 | 0.393 | 0.818 |
| LOU-NH91 | 0.716 | 0.697 | 0.695 | 0.702 | 0.649 |  | 0.724 | 0.766 | 0.654 |  | 0.516 | 0.564 | 0.465 | 0.419 |  | 0.892 | 0.615 | 0.331 | 0.766 | 0.853 |
| NCI-H23 | 0.85 | 0.796 | 0.764 | 0.78 | 0.714 | 0.326 | 0.45 | 0.334 | 0.45 |  | 0.475 | 0.462 | 0.375 | 0.401 | 0.551 | 0.808 | 0.464 | 0.363 | 0.344 | 0.654 |
| NCI-H1666 | 0.544 | 0.538 | 0.524 | 0.531 | 0.491 |  | 0.796 | 0.584 | 0.517 | 0.376 | 0.37 | 0.309 | 0.237 | 0.271 |  | 1.1 | 0.808 | 0.806 | 0.65 | 0.972 |
| NCI-H358 | 0.371 | 0.32 | 0.351 | 0.244 | 0.158 | 0.164 | 0.138 | 0.089 | 0.0919 | 0.441 | 0.349 | 0.273 | 0.175 | 0.181 | 0.838 | 0.679 | 0.138 | 0.101 | 0.138 | 0.407 |
| NCI-H2085 | 0.793 | 0.755 | 0.717 | 0.757 | 0.64 | 0.623 | 0.557 | 0.472 | 0.496 | 0.509 | 0.537 | 0.512 | 0.459 | 0.519 | 0.725 | 0.779 | 0.82 | 0.618 | 0.564 | 0.807 |
| LCLC-103H | 0.342 | 0.328 | 0.297 | 0.328 | 0.352 | 0.704 | 0.725 | 0.65 | 0.623 | 0.618 | 0.677 | 0.569 | 0.588 | 0.578 | 0.775 | 0.823 | 0.811 | 0.902 | 0.697 | 0.779 |
